Laboratory results as given in PMC10620162, “Structure—yeast α-glucosidase inhibitory activity relationship of 9-O-berberrubine carboxylates” (Scientific Reports, 2023).
Like-named read-outs stand apart in the source and are kept apart here.

Key:
yeast α-glucosidase [1] = biological target: T1, yeast α-glucosidase (Saccharomyces cerevisiae, UniProt P53341); test: biochemical; details: for inhibition at 50 µM: read-out: Inhibition at 50 μM (%), 50 μM
T1 construct: purchased Sigma Aldrich
Experimental: Berberrubine derivatives will be assayed for yeast α-glucosidase inhibitory activity. The protocol described by Ramadhan et al. will be used[37]. Briefly, yeast α-glucosidase (0.1 U/mL) and substrate (1 mM p-nitrophenyl-α-D-glucopyranoside) were dissolved in 0.1 M phosphate buffer (pH 6.9). A 10 μL test sample was pre-incubated with α-glucosidase (40 μL) at 37 °C for 10 min. A substrate solution (50 μL) was then added to the reaction mixture and incubated at 37 °C for an additional 20 min, and terminated by adding 1 M Na2CO3 solution (100 μL). […] The percentage inhibition of activity was calculated as follows: % Inhibition = [(A0 − A1)/A0] × 100, where: A0 is the absorbance without the sample; A1 is the absorbance with the sample. The IC50 value was deduced from the plot of % inhibition versus the concentration of the test sample.

HepG2 cells = test system: HepG2 cells; design: method as in PMID 27561717; details: cited from earlier work; for glucose consumption (GC): HepG2 cells ref 29
[2] = design: method as in doi:10.2217/clp.09.41, PMID 16956957; details: cited from earlier work
[3] = design: method as in PMID 27020531; details: at 20 °C ref 19; cited from earlier work
yeast α-glucosidase [4] = biological target: T1, yeast α-glucosidase; test: kinetic study of α-glucosidase inhibition (Lineweaver–Burk plots); format: biochemical; details: for inhibition type: Lineweaver–Burk plot analysis
Experimental: To further investigate how these 9-O-berberrubine carboxylates interact with yeast α-glucosidase, the inhibition types of four potential compounds, 9, 26, 28 and 33 were studied by using Lineweaver–Burk plot analysis.
The mode of inhibition of α-glucosidase was determined from Lineweaver–Burk plots. The inhibition type was determined using various concentrations of p-NPG substrate in the absence or presence of compounds at different concentrations. The Ki value was determined from secondary plots of slope versus [I].

[5] = cytotoxicity study with HEK-293 cells (CellTiter 96 AQueous One); format: cell-based; details: human
Experimental: HEK-293 cells (ATCC® CRL-1573™) were maintained in growth medium consisting of DMEM (Gibco®, Langley, OK) supplemented with 10% fetal bovine serum (Gibco®, Langley, OK), 100 I.U./ml penicillin (Bio Basic Canada®, Ontario, CA), 100 μg/ml streptomycin (Bio Basic Canada®, Ontario, CA), and 10 mM HEPES (4-(2-hydroxyethyl)-1-piperazineethanesulfonic acid) (Sigma Aldrich®, St. Louis, MO) at 37 °C under 5% CO2.
The cytotoxicity of the active compounds (9, 26, 28 and 33) was tested with HEK-293 cells. The cells were seeded at 1 × 10^4 cells per well into 96-well plates in growth medium and incubated overnight. The compounds were prepared at the indicated concentrations in dimethylsulfoxide (DMSO) and added to the cells. Cells were incubated for 48 h before analyzing the cell viability using CellTiter 96® AQueous One Solution Cell Proliferation Assay kit (Promega, USA) according to manufacturer’s protocol. The plate was read at the A490 by VICTORTM X3 microplate reader (PerkinElmer, USA). The 1%DMSO treated cells as a positive control (100% viability). The CC50 values were calculated from nonlinear regression analysis. Results were reported as means and standard error mean (SEM) from three biological independent experiments.

yeast α-glucosidase [6] = biological target: yeast α-glucosidase; design: method as in PMID 26917220; details: cited from earlier work

T1 sequence (P53341 whole entry): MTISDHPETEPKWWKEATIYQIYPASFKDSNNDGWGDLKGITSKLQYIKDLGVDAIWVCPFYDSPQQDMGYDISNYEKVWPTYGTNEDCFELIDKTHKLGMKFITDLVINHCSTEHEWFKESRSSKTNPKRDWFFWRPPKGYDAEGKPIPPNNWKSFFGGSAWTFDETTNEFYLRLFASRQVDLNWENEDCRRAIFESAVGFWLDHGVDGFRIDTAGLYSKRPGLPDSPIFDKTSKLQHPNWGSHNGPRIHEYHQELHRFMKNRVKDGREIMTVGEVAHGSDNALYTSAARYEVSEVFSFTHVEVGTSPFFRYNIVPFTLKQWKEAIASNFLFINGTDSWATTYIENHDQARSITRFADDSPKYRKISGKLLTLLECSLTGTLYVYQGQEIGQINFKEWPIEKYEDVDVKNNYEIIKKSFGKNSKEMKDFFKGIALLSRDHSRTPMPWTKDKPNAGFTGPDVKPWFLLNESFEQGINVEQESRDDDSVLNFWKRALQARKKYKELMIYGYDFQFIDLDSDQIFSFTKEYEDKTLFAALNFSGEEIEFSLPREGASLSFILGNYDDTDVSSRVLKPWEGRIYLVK

| Compound | inhibition at 50 µM (yeast α-glucosidase [1]) | IC50 (yeast α-glucosidase [1]; read-out: IC50) | inhibition type (yeast α-glucosidase [4]) | CC50 at 48 h [5] | further results |
| --- | --- | --- | --- | --- | --- |
| COc1ccc2cc3[n+](cc2c1OC)CCc1cc2c(cc1-3)OCO2 [BBR, Berberine, reference compound] | < 0% |  |  |  | glucose consumption (GC) (HepG2 cells): 5.04 mM; bioavailability [2]: less than 5%; aqueous solubility [3]: ~ 1.8 mg/mL |
| COc1ccc2cc3[n+](cc2c1OC(=O)c1ccccc1OCc1ccccc1)CCc1cc2c(cc1-3)OCO2.[Cl-] [Compound 9, 9-((2-(benzyloxy)benzoyl)oxy)-10-methoxy-5,6-dihydro-[1,3]dioxolo[4,5-g]isoquinolino[3,2-a]isoquinolin-7-ium chloride] | 100% | 2.29 ± 0.08 µM | competitive | 30.5 µM |  |
| COc1ccc2cc3[n+](cc2c1OC(=O)c1cc(C(C)(C)C)cc(C(C)(C)C)c1)CCc1cc2c(cc1-3)OCO2.[Cl-] [Compound 26, 9-((3,5-di-tert-butylbenzoyl)oxy)-10-methoxy-5,6-dihydro-[1,3]dioxolo[4,5-g]isoquinolino[3,2-a]isoquinolin-7-ium chloride] | 99.8% |  | competitive | 18.2 µM | IC50 (yeast α-glucosidase [1]): 1.61 ± 0.08 µM; Ki (yeast α-glucosidase [4]): 10.7 µM |
| COc1ccc2cc3[n+](cc2c1OC(=O)c1ccc2ccccc2c1)CCc1cc2c(cc1-3)OCO2.[Cl-] [Compound 28, 9-((2-naphthoyl)oxy)-10-methoxy-5,6-dihydro-[1,3]dioxolo[4,5-g]isoquinolino[3,2-a]isoquinolin-7-ium chloride] | 95.7% | 2.63 ± 0.23 µM | competitive | 20.9 µM | Ki (yeast α-glucosidase [4]; secondary plots of slope versus [I], read-out: inhibition constants (Ki)): 25.3 µM |
| COc1ccc2cc3[n+](cc2c1OC(=O)C=Cc1ccccc1)CCc1cc2c(cc1-3)OCO2.[Cl-] [Compound 29, 9-(cinnamoyloxy)-10-methoxy-5,6-dihydro-[1,3]dioxolo[4,5-g]isoquinolino[3,2-a]isoquinolin-7-ium chloride] | 88.5% |  |  |  | IC50 (yeast α-glucosidase [1]): 15.1 ± 0.6 µM; glucose consumption (GC) (HepG2 cells): 6.73 mM; cytotoxicity (HepG2 cells; compared with berberine ref 29): lower than berberine |
| COc1ccc2cc3[n+](cc2c1OC(=O)/C=C/c1c(Cl)cccc1Cl)CCc1cc2c(cc1-3)OCO2 [Compound 32, (E)-9-((3-(2,6-dichlorophenyl)acryloyl)oxy)-10-methoxy-5,6-dihydro-[1,3]dioxolo[4,5-g]isoquinolino[3,2-a]isoquinolin-7-ium chloride] | 94.8% |  |  |  | IC50 (yeast α-glucosidase [1]): 16 ± 0.67 µM |
| COc1ccc2cc3[n+](cc2c1OC(=O)/C=C/C=C/c1ccc2c(c1)OCO2)CCc1cc2c(cc1-3)OCO2.[Cl-] [Compound 33, 9-(((2E,4E)-5-(benzo[d][1,3]dioxol-5-yl)penta-2,4-dienoyl)oxy)-10-methoxy-5,6-dihydro-[1,3]dioxolo[4,5-g]isoquinolino[3,2-a]isoquinolin-7-ium chloride] | 98.7% | 1.95 ± 0.06 µM | competitive | 17.7 µM |  |
| COc1ccc2cc3[n+](cc2c1OC(=O)Cc1c(Cl)cccc1Cl)CCc1cc2c(cc1-3)OCO2 [Compound 34, 9-(2-(2,6-dichlorophenyl)acetoxy)-10-methoxy-5,6-dihydro-[1,3]dioxolo[4,5-g]isoquinolino[3,2-a]isoquinolin-7-ium chloride] | 93.9% | 7.3 ± 0.51 µM |  |  |  |
| COc1ccc2cc3[n+](cc2c1OC(=O)C(c1ccccc1)c1ccccc1)CCc1cc2c(cc1-3)OCO2 [Compound 35, 9-(2,2-diphenylacetoxy)-10-methoxy-5,6-dihydro-[1,3]dioxolo[4,5-g]isoquinolino[3,2-a]isoquinolin-7-ium chloride] | 95.2% | 6.19 ± 0.32 µM |  |  |  |
| O=c1c2ccccc2oc2cc(O)cc(O)c12 [Compound X1, 1,3-dihydroxyxanthone] |  |  |  |  | IC50 (yeast α-glucosidase [6]): 145 µM |
| CC(C)(C)[Si](C)(C)Oc1ccc(C(=O)Oc2cc(O)c3c(=O)c4ccccc4oc3c2)cc1 [Compound X2, 3-Arylacyloxyxanthone] |  |  |  |  | IC50 (yeast α-glucosidase [6]): 10.6 µM |
